US20170001988A1, “PIPERIDINE AND PIPERAZINE DERIVATIVES AND THEIR USE IN TREATING VIRAL INFECTIONS AND CANCER” (THE UNITED STATES OF AMERICA, AS REPRESENTED BY THE …, priority 2013, published 2017)
Where two headings read alike, the source gives them in different places.

Tests used:
HCV-Luc = HCV-Luc infection assay; format: cell-based; conditions: for EC50: Hepatitis C virus
[1] = ATPLite cytotoxicity assay; conditions: human
Excerpt: (§1) EC50 was generated using the HCV-Luc infection assay and IC50 using the ATPLite assay.
(§2) EC50 was generated using the HCV-Luc infection assay and TC50 using the ATPLite assay.
(§3) The cytotoxicity of the compounds was further evaluated in HepG2 cells and primary human hepatocytes.

Huh7.5.1 cells = test: in vitro; conditions: human
Excerpt: as §1, §2, §3

| Structure (SMILES) | EC50 (HCV-Luc; Table 3, read-out: EC50) [µM] | Selective Index (HCV-Luc; Table 3) | CC50 (Huh7.5.1 cells) [µM] | CC50 [1] [µM] | EC50 (HCV-Luc; Table 6, read-out: EC50) [µM] | other results |
| --- | --- | --- | --- | --- | --- | --- |
| OCCOCCN1CCN(C(c2ccccc2)c2ccc(Cl)cc2)CC1 (racemic) [CH2CH2OCH2CH2OH (R,S), 2-(2-(4-((4-Chlorophenyl)(phenyl)methyl)piperazin-1-yl)ethoxy)ethanol] | 0.032 ± 0.011 |  |  |  |  | Selective Index (HCV-Luc): 1331; CC50 ([1]; Huh7.5.1 cells): 42.6 ± 1.8 µM |
| O=C1c2ccccc2C(=O)N1CCOCCN1CCN(C(c2ccccc2)c2ccc(Cl)cc2)CC1 (stereo not drawn) [2-(2-(2-(4-((4-Chlorophenyl)(phenyl)methyl)piperazin-1-yl)ethoxy)ethyl)isoindoline-1,3-dione] | 1.54 ± 0.57 | >65 | > 100 |  |  |  |
| COc1ccccc1CN1CCC(N(CCc2ccccc2)Cc2ccccc2)CC1 [2-Methoxybenzyl, N-Benzyl-1-(2-methoxybenzyl)-N-phenethylpiperidin-4-amine] |  |  |  | 15.2 |  | EC50 (HCV-Luc): 0.64 µM |
| c1ccc(CCN2CCC(N(CCc3ccccc3)Cc3ccccc3)CC2)cc1 [2-Phenylethyl, N-Benzyl-N,1-diphenethylpiperidin-4-amine] |  |  |  | > 100 | 16.2 |  |
| CC(C)CN1CCN([C@H](c2ccccc2)c2ccc(Cl)cc2)CC1 [2-methyl-1-propyl (R), (R)-1-((4-Chlorophenyl)(phenyl)methyl)-4-isobutylpiperazine] | 0.232 ± 0.061 | 251 | 58.2 ± 7.2 |  |  |  |
| CC(C)CN1CCN([C@@H](c2ccccc2)c2ccc(Cl)cc2)CC1 [2-methyl-1-propyl (S), (S)-1-((4-Chlorophenyl)(phenyl)methyl)-4-isobutylpiperazine] | 0.102 ± 0.018 | 507 | 51.7 ± 1.4 |  |  |  |
| COc1cccc(CN2CCC(N(CCc3ccccc3)Cc3ccccc3)CC2)c1 [3-Methoxybenzyl, N-Benzyl-1-(3-methoxybenzyl)-N-phenethylpiperidin-4-amine] |  |  |  | 45.2 | 1.57 |  |
| Brc1ccc(CN2CCC(N(CCc3ccccc3)Cc3ccccc3)CC2)cc1 [4-Bromobenzyl, N-Benzyl-1-(4-bromobenzyl)-N-phenethylpiperidin-4-amine] |  |  |  | > 100 | 4.33 |  |
| Clc1ccc(CN2CCC(N(CCc3ccccc3)Cc3ccccc3)CC2)cc1 [4-Chlorobenzyl, N-Benzyl-1-(4-chlorobenzyl)-N-phenethylpiperidin-4-amine] |  |  |  | > 100 | 9.24 |  |
| N#Cc1ccc(CN2CCC(N(CCc3ccccc3)Cc3ccccc3)CC2)cc1 [4-Cyanobenzyl, 4-((4-(Benzyl(phenethyl)amino)piperidin-1-yl)methyl)benzonitrile] |  |  |  | 100 | 5.86 |  |
| Fc1ccc(CN2CCC(N(CCc3ccccc3)Cc3ccccc3)CC2)cc1 [4-Fluorobenzyl, N-Benzyl-1-(4-fluorobenzyl)-N-phenethylpiperidin-4-amine] |  |  |  | 56.3 |  | EC50 (HCV-Luc): 9.6 µM |
| COc1ccc(CN2CCC(N(CCc3ccccc3)Cc3ccccc3)CC2)cc1 [4-Methoxybenzyl, N-Benzyl-1-(4-methoxybenzyl)-N-phenethylpiperidin-4-amine] |  |  |  | 27.8 |  | EC50 (HCV-Luc): 4.35 µM |
| COC(=O)c1ccc(CN2CCC(N(CCc3ccccc3)Cc3ccccc3)CC2)cc1 [4-Methoxycarbonylbenzyl, Methyl 4-((4-(benzyl(phenethyl)amino)piperidin-1-yl)methyl)benzoate] |  |  |  | > 100 | 14 |  |
| Cc1ccc(CN2CCC(N(CCc3ccccc3)Cc3ccccc3)CC2)cc1 [4-Methylbenzyl, N-Benzyl-1-(4-methylbenzyl)-N-phenethylpiperidin-4-amine] |  |  |  | 40.3 | 0.74 |  |
| c1ccc(CCN(Cc2ccccc2)C2CCN(Cc3ccc(-c4ccccc4)cc3)CC2)cc1 [4-Phenylbenzyl, 1-([1,1′-Biphenyl]-4-ylmethyl)-N-benzyl-N-phenethylpiperidin-4-amine] |  |  |  | > 100 | 12.2 |  |
| FC(F)(F)c1ccc(CN2CCC(N(CCc3ccccc3)Cc3ccccc3)CC2)cc1 [4-Trifluoromethylbenzyl, N-Benzyl-N-phenethyl-1-(4-(trifluoromethyl)benzyl)piperidin-4-amine] |  |  |  | > 100 | > 10 |  |
| CC(=O)N1CCN([C@@H](c2ccccc2)c2ccc(Cl)cc2)CC1 [Acetyl (S), (S)-1-(4-((4-Chlorophenyl)(phenyl)methyl)piperazin-1-yl)ethanone] | 22 ± 3.2 | 4 | 91.3 ± 1 |  |  |  |
| CC(=O)N1CCC(N(CCc2ccccc2)Cc2ccccc2)CC1 [Acetyl, 1-(4-(Benzyl(phenethyl)amino)piperidin-1-yl)ethanone] |  |  |  | 74.5 | > 31.6 |  |
| O=C(c1ccccc1)N1CCC(N(CCc2ccccc2)Cc2ccccc2)CC1 [Benzoyl, (4-(Benzyl(phenethyl)amino)piperidin-1-yl)(phenyl)methanone] |  |  |  | 94 | 24.8 |  |
| c1ccc(CCN(Cc2ccccc2)C2CCN(Cc3ccccc3)CC2)cc1 [Benzyl, N,1-dibenzyl-N-phenethylpiperidin-4-amine] |  |  |  | 30.9 | 0.32 |  |
| CCCCN1CCC(N(CCc2ccccc2)Cc2ccccc2)CC1 [Butyl, N-Benzyl-1-butyl-N-phenethylpiperidin-4-amine] |  |  |  | 17.9 | 1.55 |  |

| Structure (SMILES) | EC50 (HCV-Luc; Table 3, read-out: EC50) [µM] | Selective Index (HCV-Luc; Table 3) | CC50 (Huh7.5.1 cells) [µM] | CC50 [1] [µM] | EC50 (HCV-Luc; Table 6, read-out: EC50) [µM] | other results |
| --- | --- | --- | --- | --- | --- | --- |
| [2H]C([2H])([2H])N1CCN([C@H](c2ccccc2)c2ccc(Cl)cc2)CC1 [CD3 (R), (R)-1-((4-Chlorophenyl)(phenyl)methyl)-4-methyl(d3)piperazine] | 0.04 ± 0.017 |  | 46.7 ± 0.4 |  |  |  |
| [2H]C([2H])([2H])N1CCN([C@@H](c2ccccc2)c2ccc(Cl)cc2)CC1 [CD3 (S), (S)-1-((4-Chlorophenyl)(phenyl)methyl)-4-methyl(d3)piperazine] | 0.063 ± 0.025 |  | 77.9 ± 3.1 |  |  |  |
| [2H]C([2H])([2H])CN1CCC(N(CCc2ccccc2)Cc2ccccc2)CC1 [CD3CH2—, N-Benzyl-1-ethyl(2,2,2-d3)-N-phenethylpiperidin-4-amine] |  |  |  | 50.8 | 2.37 |  |
| [2H]C([2H])([2H])N1CCC(N(CCc2ccccc2)Cc2ccccc2)CC1 [CD3—, N-Benzyl-1-methyl(d3)-N-phenethylpiperidin-4-amine] |  |  |  | 100 | 7.95 |  |
| FC(F)(F)CN1CCN([C@H](c2ccccc2)c2ccc(Cl)cc2)CC1 [CF3CH2 (R), (R)-1-((4-Chlorophenyl)(phenyl)methyl)-4-(2,2,2-trifluoroethyl)piperazine] | > 31.6 |  | > 100 |  |  |  |
| FC(F)(F)CN1CCN([C@@H](c2ccccc2)c2ccc(Cl)cc2)CC1 [CF3CH2 (S), (S)-1-((4-Chlorophenyl)(phenyl)methyl)-4-(2,2,2-trifluoroethyl)piperazine] | > 31.6 |  | > 100 |  |  |  |
| FC(F)(F)CN1CCC(N(CCc2ccccc2)Cc2ccccc2)CC1 [CF3CH2—, N-Benzyl-N-phenethyl-1-(2,2,2-trifluoroethyl)piperidin-4-amine] |  |  |  | > 100 | > 31.6 |  |
| Ic1ccc(CN2CCC(N(CCc3ccccc3)Cc3ccccc3)CC2)cc1 [Compound 4-Iodobenzyl, N-Benzyl-1-(4-iodobenzyl)-N-phenethylpiperidin-4-amine] |  |  |  | > 100 | 2.98 |  |
| Clc1ccc([C@H](c2ccccc2)N2CCN(C3CCCCC3)CC2)cc1 [Cyclohexyl (S), (S)-1-((4-Chlorophenyl)(phenyl)methyl)-4-cyclohexylpiperazine] | 0.177 ± 0.037 | 69 | 12.3 ± 0.3 |  |  |  |
| c1ccc(CCN(Cc2ccccc2)C2CCN(C3CCCCC3)CC2)cc1 [Cyclohexyl, N-Benzyl-1-cyclohexyl-N-phenethylpiperidin-4-amine] |  |  |  | 33.8 | 1.5 |  |
| Clc1ccc([C@H](c2ccccc2)N2CCN(C3CCCC3)CC2)cc1 [Cyclopentyl (S), (S)-1-((4-Chlorophenyl)(phenyl)methyl)-4-cyclopentylpiperazine] | 0.019 ± 0.006 | 1600 | 30.4 ± 2.8 |  |  |  |
| c1ccc(CCN(Cc2ccccc2)C2CCN(C3CCCC3)CC2)cc1 [Cyclopentyl, N-Benzyl-1-cyclopentyl-N-phenethylpiperidin-4-amine] |  |  |  | 15 | 0.48 |  |
| CCN1CCC(N(CCc2ccccc2)Cc2ccccc2)CC1 [Et, N-Benzyl-1-ethyl-N-phenethylpiperidin-4-amine] |  |  |  | 35.3 | 0.039 |  |
| Clc1ccc([C@@H](c2ccccc2)N2CCNCC2)cc1 [H (R), (R)-1-((4-Chlorophenyl)(phenyl)methyl)piperazine] | 0.032 ± 0.022 | 391 | 12.5 ± 1.4 |  |  |  |
| Clc1ccc([C@H](c2ccccc2)N2CCNCC2)cc1 [H (S), (S)-1-((4-Chlorophenyl)(phenyl)methyl)piperazine] | 0.034 ± 0.012 | 0274 | 9.31 ± 0.04 |  |  |  |
| CC(C)N1CCN([C@@H](c2ccccc2)c2ccc(Cl)cc2)CC1 [i-Pr (S), (S)-1-((4-Chlorophenyl)(phenyl)methyl)-4-isopropylpiperazine] | 0.013 ± 0.004 | 2492 | 32.4 ± 3.8 |  |  |  |
| CCCCN1CCN([C@H](c2ccccc2)c2ccc(Cl)cc2)CC1 [n-Bu (R), (R)-1-Butyl-4-((4-chlorophenyl)(phenyl)methyl)piperazine] | 0.195 ± 0.084 | 309 | 40.8 ± 0.4 |  |  |  |
| CCCCN1CCN([C@@H](c2ccccc2)c2ccc(Cl)cc2)CC1 [n-Bu (S), (S)-1-Butyl-4-((4-chlorophenyl)(phenyl)methyl)piperazine] | 0.042 ± 0.023 | 740 | 31.1 ± 4.2 |  |  |  |
| CCCN1CCN([C@H](c2ccccc2)c2ccc(Cl)cc2)CC1 [n-Pr (R), (R)-1-((4-Chlorophenyl)(phenyl)methyl)-4-propylpiperazine] | 0.024 ± 0.005 | 2021 | 48.5 ± 1.1 |  |  |  |
| CCCN1CCN([C@@H](c2ccccc2)c2ccc(Cl)cc2)CC1 [n-Pr (S), (S)-1-((4-Chlorophenyl)(phenyl)methyl)-4-propylpiperazine] | 0.032 ± 0.018 | 1241 | 39.7 ± 0.9 |  |  |  |
